Reference: publication PMC7662393, “Comprehensive Characterization of Linalool-HP-β-Cyclodextrin Inclusion Complexes” (Molecules, 2020)
≈ marks a conversion by molar mass, not a printed value. Where two headings read alike, the source gives them in different places.

Legend:
[1] = parameters: method as in PMID 25298799; settings: HP-β-CDs; cited from earlier work
[2] = parameters: method as in PMID 25298799; settings: RAMEB; cited from earlier work
[3] = parameters: method as in PMID 25298799; settings: CRYSMEB; cited from earlier work
[4] = hydroxyl group at C3; no reference or method printed; cited from earlier work
[5] = Phase solubility study of linalool complexation with β-CDs; assay type: physicochemical
Description: (§1) The study of linalool solubility in the presence of CDs was carried out according to the method described by Higuchi and Connors in 1965 with slight modifications. CDs were dissolved in buffered solutions at different pHs: 3.5, 5.5 (100 mmol L^−1 sodium acetate buffer), 6.5, 7.0 (100 mmol L^−1 sodium phosphate buffer) and 8.5 (100 mmol L^−1 sodium borate buffer). The α- and HP-β-CDs were prepared up to 100 mmol L^−1. However, β-CDs were prepared up to 15 mmol L^−1, since this is their limit of aqueous solubility.
(§2) A saturating concentration of linalool was added to each CDs solution and they were kept in an ultrasound bath for 60 min in the dark, at 25 °C, until equilibrium was reached. Subsequently, the solutions were filtered through a 0.45 µm nylon membrane filter (Chromafil, Macherey-Nagel, Düren, Germany) to remove excess linalool.
(§3) Once filtered, the solutions were diluted with ethanol until reach ethanol 80% (solution:ethanol, 20:80, v:v) to quantify by gas chromatography-mass spectrometry (GC-MS) the linalool concentration in each solution. Phase solubility diagrams were made in triplicate.
(§4) The quantification of linalool was carried out by using a Shimadzu GC-QP 2010 (Kyoto, Japan) gas chromatographer combined with a mass spectrometer. Helium was used as carrier gas, at a flow rate of 0.5 mL min^−1. A ω-WAX 250 fused silica supelco column (30 m × 0.25 mm × 0.25 µm thickness), was used. The temperature conditions were as follows: initial temperature at 70 °C, raised to 160 °C at 4 °C min^−1, raised to 280 °C at 30 °C min^−1, and maintained finally at 280 °C for 6 min. Injector temperature was 250 °C and injector mode was Split 1:20.
(§5) The peak area of each sample was used for linalool quantification (mmol L^−1), by interpolating in the calibration curve obtained using a standard of linalool, defined by equation: Area = […] [linalool (mmol L^−1)] and (R^2 = 0.9989) for linalool concentration from 0.0 to 0.5 mmol L^−1.
(§6) Kc between linalool and CDs was calculated from the slope of the phase solubility profile and the solubility of linalool in aqueous solution (S0) by using Equation (1):(1) Kc (Lmol^−1)=slope/S0(1−slope)
(§7) CE is the ratio between dissolved complex and free CDs concentration. […] was calculated by using Equation (2):(2) CE=[disolved−complex]/[CDs]=S0∗Kc
(§8) The molar ratio (MR) linalool:CDs, was calculated using CE values with Equation (3). (3) linalool:CDs=1:(1+1/CE)

[6] = Phase solubility of linalool with HP-β-CDs by microwave irradiation (MWI); assay type: physicochemical; settings: pH 7.0
Description: The encapsulation of linalool with HP-β-CDs by using MWI was carried out following the method described by Hernández-Sánchez et al. in 2017 [32]. Aqueous solutions of HP-β-CDs (100 mL, 0–100 mmol L^−1) were irradiated with microwave (LG Grill Wavedom, LG Electronics Las Rozas, Spain), at 700 W for 30 s, at 10 s intervals, until reaching a temperature of 70 °C in the solution. Later on, linalool was added to each aqueous solution, in a molar ratio of 1:1 and then, were irradiated again for 30 s at 10 s intervals, until reaching again 70 °C. Subsequently, the samples were shaken and kept for 12 h in dark sealed vials at 25 °C, before dividing them into two groups. After that, the first group, named 24 h MWI, was filtered using 0.45 µm nylon membrane filter (Chromafil, Macherey-Nagel). The second group, named 48 h MWI, were irradiated again, until reaching 70 °C, and maintain 12 h in the dark before they were filtered through a 0.45 µm nylon filter to remove linalool excess. Once filtered, both groups of samples were diluted with ethanol (20:80, v:v) until the GC-MS quantification of the linalool. All measurements were made in triplicate.
as §4, §5

[7] = Phase solubility study of linalool complexation with HP-β-CDs (ultrasound); assay type: physicochemical
Description: as §1, §2, §3, §4, §5, §6, §7, §8

[8] = Aqueous solubility of linalool (S0) from phase solubility study, ultrasound equilibrium; assay type: physicochemical; settings: for solubility at 60 min: read-out: Recovery aqueous solubility (S0)
Description: as §1, §2, §3, §4, §5

[9] = Phase solubility study of linalool complexation with α-CDs; assay type: physicochemical
Description: as §1, §2, §3, §4, §5, §6, §7, §8

[10] = parameters: method as in doi:10.1002/ffj.3197; settings: JECFA (FAO/WHO); cited from earlier work

In the case of `O=C(O)/C=C/c1ccc(O)cc1` [coumaric acid], the “Complexation efficiency (CE)” value [1] is given as 2.30, the “Complexation efficiency (CE)” value [2] is given as 2.57 and the “Complexation efficiency (CE)” value [3] is given as 1.89.
In the case of `C=CCc1ccc(O)c(OC)c1` [eugenol], the “Complexation efficiency (CE)” value [1] is given as 2.81.
For `COc1cc(/C=C/C(=O)O)ccc1O` [ferulic acid], the “Complexation efficiency (CE)” value [2] is listed as 1.79.
For `C=CC(C)(O)CCC=C(C)C` (stereo not drawn) [linalool, 3,7-dimethyl-1,6-octadien-3-ol], the pKa [4] is listed as 18.46, the “Complexation efficiency (CE)” value ([5]; pH 3.5) is listed as 0.261 and the “Complexation constant (KC)” value ([5]; pH 3.5, 25 °C) is listed as 28 ± 4 L/mol. The “Complexation efficiency (CE)” value ([5]; pH 5.5) was 0.670, the “Complexation constant (KC)” value ([5]; pH 5.5, 25 °C) was 74 ± 5 L/mol and the “Complexation efficiency (CE)” value ([5]; pH 6.5) was 0.743. The “Complexation constant (KC)” value ([5]; pH 6.5, 25 °C) was 91 ± 4 L/mol, the “Complexation efficiency (CE)” value ([5]; pH 7.0) was 1.776 and the “Complexation constant (KC)” value ([5]; pH 7.0, 25 °C) was 241 ± 26 L/mol. The “Complexation efficiency (CE)” value ([5]; pH 8.5) was 0.149, the “Complexation constant (KC)” value ([5]; pH 8.5, 25 °C) was 16 ± 5 L/mol and the Linalool concentration solved ([6]; 100 mM HP-β-CDs, MWI) was 13.61 mM. The “Increase in solubility of linalool” value ([6]; HP-β-CDs, MWI as energy source, volume 100 mL) was 18.2 fold, the solubility thermodynamic ([6]; aqueous solution without HP-β-CDs (S0), 25 °C, water, thermodynamic from solid, MWI) was 0.75 mM (≈ 116 µg/mL) and the Linalool concentration solved ([7]; 100 mM HP-β-CDs, US, pH 7.0) was 96.72 mM. The “Linalool concentration solved, US relative to MWI” value ([7]; 100 mM HP-β-CDs, pH 7.0) was 7 fold, the “Increase in solubility of linalool” value ([7]; HP-β-CDs, US as energy source, volume 100 mL, pH 7.0) was 13.1 fold and the “Complexation efficiency (CE)” value ([7]; HP-β-CDs, pH 3.5) was 0.411. For the same compound, the “Complexation constant (KC)” value ([7]; HP-β-CDs, pH 3.5, 25 °C) was 44 ± 6 L/mol, the “Complexation efficiency (CE)” value ([7]; HP-β-CDs, pH 5.5) was 0.443 and the “Complexation constant (KC)” value ([7]; HP-β-CDs, pH 5.5, 25 °C) was 49 ± 7 L/mol. For the same compound, the “Complexation efficiency (CE)” value ([7]; HP-β-CDs, pH 6.5) was 1.836, the “Complexation constant (KC)” value ([7]; HP-β-CDs, pH 6.5, 25 °C) was 225 ± 14 L/mol and the “Complexation efficiency (CE)” value ([7]; HP-β-CDs, pH 7.0) was 6.788. For the same compound, the “Complexation constant (KC)” value ([7]; HP-β-CDs, pH 7.0, 25 °C) was 921 ± 21 L/mol, the “Complexation efficiency (CE)” value ([7]; HP-β-CDs, pH 8.5) was 5.215 and the “Complexation constant (KC)” value ([7]; HP-β-CDs, pH 8.5, 25 °C) was 559 ± 17 L/mol. For the same compound, the “KC value for HP-β-CDs relative to that for β-CDs” value ([7]; neutral pH) was 4 fold, the solubility at 60 min ([8]; aqueous buffer, thermodynamic from solid, pH 6.5, 25 °C) was 8.16 ± 0.11 mM (≈ 1260 µg/mL) and the solubility at 60 min ([8]; aqueous buffer, thermodynamic from solid, pH 7.0, 25 °C) was 7.37 mM (≈ 1140 µg/mL). The “Recovery aqueous solubility (S0)” value ([8]; pH 3.5, 25 °C) was 9.34 ± 0.20 mM, the solubility at 60 min ([8]; pH 5.5, 25 °C) was 9.05 ± 0.16 mM (≈ 1400 µg/mL) and the “Recovery aqueous solubility (S0)” value ([8]; pH 7.0, 25 °C) was 7.37 ± 0.03 mM. The solubility at 60 min ([8]; pH 8.5, 25 °C) was 9.33 ± 0.13 mM (≈ 1440 µg/mL), the solubility at 60 min ([8]; sodium acetate buffer, pH 3.5, 25 °C) was 9.34 mM (≈ 1440 µg/mL) and the “Complexation efficiency (CE)” value ([9]; pH 3.5) was 0.159. The “Complexation constant (KC)” value ([9]; pH 3.5, 25 °C) was 17 ± 6 L/mol, the “Complexation efficiency (CE)” value ([9]; pH 5.5) was 0.226 and the “Complexation constant (KC)” value ([9]; pH 5.5, 25 °C) was 25 ± 4 L/mol. The “Complexation efficiency (CE)” value ([9]; pH 6.5) was 0.987, the “Complexation constant (KC)” value ([9]; pH 6.5, 25 °C) was 121 ± 9 L/mol and the “Complexation efficiency (CE)” value ([9]; pH 7.0) was 1.090. The “Complexation constant (KC)” value ([9]; pH 7.0, 25 °C) was 148 ± 12 L/mol, the “Complexation efficiency (CE)” value ([9]; pH 8.5) was 0.979 and the “Complexation constant (KC)” value ([9]; pH 8.5, 25 °C) was 105 ± 8 L/mol. The “Allowable daily intake (ADI)” value [10] was 0–0.5 mg kg^−1 of body weight/day.
